{"source": "patent US20250228796A1", "about": "“SKELETAL MUSCLE ENHANCER” (SATO PHARMACEUTICAL CO., LTD., priority 2022, published 2025)", "assay_type_in_all_cases": "in vivo, mouse", "key": {"[1]": {"test_system": "tibialis anterior muscle of muscle damage model (CTX)", "assay": "Muscle damage model (cardiotoxin): muscle weight and regenerated muscle fiber cross-sectional area", "conditions": "7 days after CTX", "experimental": "(§1) Seven-week old C57BL/6 Male mice (CLEA Japan, Inc.) were purchased, and used for experiment at the age of 8 weeks.\nA model animal to which muscle damage had been caused by administion of snake venom cardiotoxin (CTX) was used. The model animal has been widely used in studies on regeneration from muscle damage.\nUnder the anesthesia with isoflurane, 50 μL of 10 μM CTX was administered to the tibialis anterior muscle of the right hindlimb of the mouse. Fifty μL of a phosphate buffer (PBS) was administered as a Vehicle to the tibialis anterior muscle of left hindlimb of the same mouse. After 7 days of the administration of CTX, the tibialis anterior muscle was collected by dissection, and supplied to the measurement of muscle weight and preparation of a muscle tissue section.\n(§2) Body weight of the mouse was measured before collecting the tibialis anterior muscle. Furthermore, the weight of the collected tibialis anterior muscle was measured. From these measured values, the ratio (%) of the skeletal muscle weight per body weight of the mouse (weight of tibialis anterior muscle/body weight of mouse) was calculated.\n(§3) Immediately after the collection of the tibialis anterior muscle, the tibialis anterior muscle was immersed in isopentane cooled with liquid nitrogen and was rapidly frozen. The frozen muscle tissue was cut into slices each having a thickness of 10 μm by using a cryostat (Leica Biosystems), and the slice was attached onto an antistripping coated slide glass (Matsunami Glass Ind., Ltd.).\nA muscle tissue section was sufficiently air dried for 30 minutes under room temperature. After that, the muscle tissue sections was fixed by immersing it in acetone cooled to −30° C. and treating at −30° C. for 20 minutes. The fixed sections was air dried once and washed with PBS. Then the section was blocked by dropwisely adding a blocking reagent (Blocking One. NACALAI TESQUE, INC.) to the section and subjected to the blocking treatment for 1 hour. Next, a primary antibody (Anti-laminin-2 (α-2 Chain) antibody Rat monoclonal (Sigma-Aldrich)) obtained by being diluted 500 times with a blocking reagent was added dropwise, and the reaction was conducted at overnight at 4° C. Since laminin to which a primary antibody binds is a protein expressed in the basement membranes of all muscle cells, the laminin was used in this experiment as an index in order to measure the area of individual muscle cells in a section. The muscle tissue section after the reaction with the primary antibody was washed with PBS, and then was reacted for 1 hour with a secondary antibody (CF 488A Goat Anti-Rat IgG (H+L) (Biotium)) obtained by being diluted 500 times with the blocking reagent. The secondary antibody that is an anti-rat antibody conjugated with a fluorescent dye binds to the primary antibody, and stains the laminin. The muscle tissue sections after the reaction with the secondary antibody was washed with PBS, and sealed by using “VECTASHIELD Hard. Set with DAPI” (Vector), and then the fluorescence observation was performed with an inverted microscope FSX100 (Olympus).\nThe muscle fiber cross-sectional area was measured basis of the image data taken from the fluorescence observation. After the image data was taken into image analysis software ImageJ (NIH), the cross-sectional area of the individual cells were measured on the basis of the cell membrane stained with laminin. For the area measurement, “Analyze Particles” that is an add-in analysis program on ImageJ was used. The measurement results were shown as a distribution chart (histogram) of the areas and number of single-muscle fibers, and as an average value of the cross-sectional areas of all the single muscle fibers (mean muscle fiber area).\nIn the muscle damage model (Example 3), the regenerated muscle was used as a measurement target. […]"}, "[2]": {"test_system": "Trim63 (MuRF1) mRNA expression", "assay": "Expression analysis of muscle atrophy-related gene Trim63 in muscle atrophy model", "conditions": "3 days", "experimental": "(§4) Under the anesthesia with isoflurane, the left hindlimb of the mouse in a bent state was fixed with a surgical stapler (Kaiser Plus. KEISEI MEDICAL INDUSTRIAL CO., LTD.). The right hindlimb of the same mouse was assigned to the sham-treatment side, and no fixation treatment was performed. After 3 or 7 days of the start of fixation, the tibialis anterior muscle (one of skeletal muscles) was collected by dissection. The sample collected after 3 days was supplied to the expression analysis of the muscle atrophy-related genes, and the sample collected after 7 days was supplied to the measurement of a muscle weight and the preparation of a muscle tissue section.\n(§5) The tibialis anterior muscle was homogenized with Sepasol-RNA I Super G (NACALAI TESQUE, INC.), 1-bromo-3-chloropropane was added thereto, the mixture was stirred, and further centrifuged, then RNA was extracted from the supernatant. The extracted RNA was recovered with 2-propanol and 75% ethanol, and then subjected to the reverse transcription reaction (using ReverTra Ace qPCR RT Master Mix (Toyobo Co., Ltd.) according to the attached protocol) to synthesize cDNA. The synthesized CDNA was subjected to the real-time PCR method (using Applied Biosystems 7500 Real-Time PCR System (Thermo Fisher Scientific)) to measure mRNA expression of three genes, Trim63 (MuRF1), myostatin (Mstn), and Gapdh. Primer sequences used are as follows.\n(§6) The expression levels of mRNA of Trim63 and Mstn (mTrim63 and mMstn) were calculated as a ratio to the expression level of mRNA of Gapdh (mGapdh). […]\n(§7) Spermidine trihydrochloride (SPD) was administered to muscle atrophy model animals by three administration routes, and the expression variations of muscle atrophy-related genes Trim63 and Mstn were measured. […]\n(§8) The mRNA expression of Trim63 and Mstn in the tibialis anterior muscle of the left hindlimb (fixed: Staple) and the right hindlimb (sham treatment: Sham) collected after 3 days of the start of fixation was measured."}, "[3]": {"test_system": "myostatin (Mstn) mRNA expression", "assay": "Expression analysis of muscle atrophy-related gene Mstn in muscle atrophy model", "conditions": "3 days", "experimental": "as §4, §5, §6, §7, §8"}, "[4]": {"test_system": "tibialis anterior muscle of muscle atrophy model", "assay": "Muscle atrophy model (hindlimb fixation): muscle weight and muscle fiber cross-sectional area", "conditions": "intramuscular", "text": "as §1\nA model animal to which muscle atrophy had been caused by a method of fixing a hindlimb (J Appl Physiol, vol. 106, pp. 2049-2059, 2009) was used.\nas §4, §2, §3\nA muscle tissue section was sufficiently air dried for 30 minutes under room temperature. After that, the muscle tissue sections was fixed by immersing it in acetone cooled to −30° C. and treating at −30° C. for 20 minutes. The fixed sections was air dried once and washed with PBS. Then the section was blocked by dropwisely adding a blocking reagent (Blocking One. NACALAI TESQUE, INC.) to the section and subjected to the blocking treatment for 1 hour. Next, a primary antibody (Anti-laminin-2 (α-2 Chain) antibody Rat monoclonal (Sigma-Aldrich)) obtained by being diluted 500 times with a blocking reagent was added dropwise, and the reaction was conducted at overnight at 4° C. Since laminin to which a primary antibody binds is a protein expressed in the basement membranes of all muscle cells, the laminin was used in this experiment as an index in order to measure the area of individual muscle cells in a section. The muscle tissue section after the reaction with the primary antibody was washed with PBS, and then was reacted for 1 hour with a secondary antibody (CF 488A Goat Anti-Rat IgG (H+L) (Biotium)) obtained by being diluted 500 times with the blocking reagent. The secondary antibody that is an anti-rat antibody conjugated with a fluorescent dye binds to the primary antibody, and stains the laminin. […] Set with DAPI” (Vector), and then the fluorescence observation was performed with an inverted microscope FSX100 (Olympus).\nThe muscle fiber cross-sectional area was measured basis of the image data taken from the fluorescence observation. After the image data was taken into image analysis software ImageJ (NIH), the cross-sectional area of the individual cells were measured on the basis of the cell membrane stained with laminin. […]"}, "[5]": {"conditions": "intraperitoneal, 19.6 mM 10 mL/kg once a day"}}}
{"molecule": "Cl.Cl.Cl.NCCCCNCCCN", "note": "[SPD, Spermidine trihydrochloride]", "values": [{"measurement": "suppression of muscle weight loss by CTX", "setting": "[1]; intramuscular, 196 mM 10 μL once a day", "value": "remarkable suppression"}, {"measurement": "histogram of regenerated single-muscle fiber area vs Vehicle", "setting": "[1]; intramuscular", "value": "shifted to the right side"}, {"measurement": "mean muscle fiber area (regenerated muscle) vs Vehicle", "setting": "[1]; intramuscular, ***P<0.001", "value": "significant increase"}, {"measurement": "suppression of muscle weight loss by CTX", "setting": "[1]; [5]", "value": "a significant suppression was not observed"}, {"measurement": "histogram of regenerated single-muscle fiber area vs Vehicle", "setting": "[1]; intraperitoneal", "value": "no shift"}, {"measurement": "mean muscle fiber area (regenerated muscle) vs Vehicle", "setting": "[1]; intraperitoneal", "value": "no significant increase"}, {"measurement": "suppression of muscle weight loss by CTX", "setting": "[1]; oral, 30 mM in drinking water", "value": "a significant suppression was not observed"}, {"measurement": "histogram of regenerated single-muscle fiber area vs Vehicle", "setting": "[1]; oral", "value": "no shift"}, {"measurement": "mean muscle fiber area (regenerated muscle) vs Vehicle", "setting": "[1]; oral", "value": "no significant increase"}, {"measurement": "Trim63 expression suppression (reduction vs Staple, Vehicle)", "setting": "[2]; intramuscular, 196 mM 10 μL once a day, fixed left hindlimb (Staple), *P<0.05", "value": 65.6, "unit": "%"}, {"measurement": "Trim63 expression suppression (reduction vs Staple, Vehicle)", "setting": "[2]; intraperitoneal, 19.6 mM 10 mL/kg once a day, Staple", "value": 42.3, "unit": "%"}, {"measurement": "Trim63 expression suppression", "setting": "[2]; oral, 30 mM in drinking water", "value": "no expression suppression"}, {"measurement": "Mstn expression suppression (reduction vs Staple, Vehicle)", "setting": "[3]; intramuscular, 196 mM 10 μL once a day, Staple, **P<0.01", "value": 61.1, "unit": "%"}, {"measurement": "Mstn expression suppression", "setting": "[3]; [5]", "value": "did not show significant expression suppression"}, {"measurement": "Mstn expression suppression", "setting": "[3]; oral, 30 mM in drinking water", "value": "did not show significant expression suppression"}, {"measurement": "muscle weight loss due to hindlimb fixation", "setting": "[4]; 196 mM 10 μL once a day, 7 days, **P<0.01", "value": "significant suppression"}, {"measurement": "muscle weight vs Vehicle administration group", "setting": "[4]; 196 mM 10 μL once a day, left hindlimb (fixed: Staple), 7 days after start of fixation", "value": "significant increase"}, {"measurement": "muscle weight vs Vehicle administration group", "setting": "[4]; 196 mM 10 μL once a day, right hindlimb (sham treatment: Sham), 7 days after start of fixation", "value": "significant increase"}, {"measurement": "mean muscle fiber area vs Vehicle", "setting": "[4]; 7 days after start of fixation, ***P<0.001", "value": "significant increase"}, {"measurement": "histogram of single-muscle fiber area vs Vehicle", "setting": "[4]; 7 days after start of fixation, whole muscle", "value": "shifted to the right side"}]}
